# Source: paper PMC6934184, “Selective DNA-PKcs inhibition extends the therapeutic index of localized radiotherapy and chemotherapy” (The Journal of Clinical Investigation, 2019)
# Biological target: T1, STK32C (YANK3) (Homo sapiens, UniProt Q86UX6)
# T1 construct: purchased Thermo Fisher Scientific (Life Technologies) SelectScreen
# Assay: SelectScreen LanthaScreen
# Type: binding
# Conditions: read-out: % displacement
# Procedure, shortened: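 NU5455 was profiled across the SelectScreen Broad panel of kinase activity and binding assays. Z'LYTE reactions such as CSF1R ran at apparent Km ATP, while the Adapta CAMK1 assay used ATP listed as 10. Values are given as percent.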
# T1 sequence (Q86UX6 whole entry): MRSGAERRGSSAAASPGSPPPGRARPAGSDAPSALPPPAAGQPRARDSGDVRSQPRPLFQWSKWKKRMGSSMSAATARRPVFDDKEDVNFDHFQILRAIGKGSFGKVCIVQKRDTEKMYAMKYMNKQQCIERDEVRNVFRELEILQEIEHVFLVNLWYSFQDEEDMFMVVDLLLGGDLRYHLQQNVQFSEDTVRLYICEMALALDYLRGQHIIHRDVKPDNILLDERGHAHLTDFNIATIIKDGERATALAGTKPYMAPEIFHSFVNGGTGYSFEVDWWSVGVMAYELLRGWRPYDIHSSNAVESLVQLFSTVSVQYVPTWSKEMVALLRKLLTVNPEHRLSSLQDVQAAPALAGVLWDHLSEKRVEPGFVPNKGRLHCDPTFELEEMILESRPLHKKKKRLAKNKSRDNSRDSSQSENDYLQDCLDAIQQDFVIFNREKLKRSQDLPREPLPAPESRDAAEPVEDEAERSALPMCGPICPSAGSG
structure (smiles),measurement,value
CN(C(=O)CN1CCOCC1)c1ccc2sc3c(-c4cccc5c(=O)cc(N6CC7CCC(C6)O7)oc45)cccc3c2c1 [NU5455],inhibition at 1 µM,4.2%
